BindingDB's records for patent US9790180 (REGENACY PHARMACEUTICALS, LLC, 2017)

Tests used:
Histone deacetylase 3 = Histone deacetylase 3 (Homo sapiens, UniProt O15379)
Histone deacetylase 2 = Histone deacetylase 2 (Homo sapiens, UniProt Q92769)
Histone deacetylase 2, sequence (Q92769 whole entry): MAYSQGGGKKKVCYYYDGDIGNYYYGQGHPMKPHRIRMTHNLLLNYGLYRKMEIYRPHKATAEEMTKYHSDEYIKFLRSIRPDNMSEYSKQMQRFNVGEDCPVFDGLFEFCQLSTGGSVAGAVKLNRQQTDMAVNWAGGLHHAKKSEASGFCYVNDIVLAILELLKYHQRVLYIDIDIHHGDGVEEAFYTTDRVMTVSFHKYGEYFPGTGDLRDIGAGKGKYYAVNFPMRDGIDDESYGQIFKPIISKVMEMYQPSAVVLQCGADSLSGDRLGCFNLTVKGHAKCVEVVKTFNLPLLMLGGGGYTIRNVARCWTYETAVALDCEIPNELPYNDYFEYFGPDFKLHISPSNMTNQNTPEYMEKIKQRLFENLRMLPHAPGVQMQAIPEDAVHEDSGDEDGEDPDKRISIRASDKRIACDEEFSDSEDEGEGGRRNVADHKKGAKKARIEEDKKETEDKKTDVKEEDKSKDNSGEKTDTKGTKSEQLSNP

Histone deacetylase 3, sequence (O15379 whole entry): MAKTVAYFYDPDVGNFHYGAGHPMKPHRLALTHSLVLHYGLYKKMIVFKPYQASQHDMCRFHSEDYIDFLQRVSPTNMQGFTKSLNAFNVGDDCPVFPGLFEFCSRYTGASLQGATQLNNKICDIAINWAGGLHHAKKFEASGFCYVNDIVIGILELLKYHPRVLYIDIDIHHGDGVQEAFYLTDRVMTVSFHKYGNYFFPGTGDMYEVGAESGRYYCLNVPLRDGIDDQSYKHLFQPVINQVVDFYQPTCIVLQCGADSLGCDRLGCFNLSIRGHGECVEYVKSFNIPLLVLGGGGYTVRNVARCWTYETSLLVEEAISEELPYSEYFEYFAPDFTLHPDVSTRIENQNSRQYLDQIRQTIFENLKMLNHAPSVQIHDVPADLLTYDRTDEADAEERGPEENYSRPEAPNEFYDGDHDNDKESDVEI

IC50 (Histone deacetylase 3) [nM] | IC50 (Histone deacetylase 2) [nM] | SMILES
> 2000 | 211 | CN(c1ncc(C(=O)Nc2cc(-c3ccccc3)ccc2N)cn1)C1CCN(C(=O)Cc2c[nH]c3ccccc23)CC1 [US9790180, ID 033]
252 | 26 | CC1(Nc2ncc(C(=O)Nc3cc(-c4ccccc4)ccc3N)cn2)CCNCC1 [US9790180, ID 041]
1400 | 196 | Nc1ccc(-c2ccccc2)cc1NC(=O)c1cnc(NC2CCN(C(=O)Cc3c[nH]c4ccccc34)CC2)nc1 [US9790180, ID 035]
